Measured values: ChEMBL document CHEMBL5357031, “Design and Synthesis of Cytotoxic Water-Soluble Rocaglaol Derivatives against HEL Cells by Inhibiting Fli-1” (J Nat Prod, 2024)
≈ marks a conversion by molar mass, not a printed value. Structures can show the parent of a compound that is named as a salt.

Key:
MDA-MB-231 [1] = assay: cells; conditions: Homo sapiens, MDA-MB-231, 72 h
Description: (§1) Cytotoxicity against human MDA-MB-231 cells assessed as cell growth inhibition incubated for 72 hrs by MTT assay

HEL = assay: Cytotoxicity against HEL cells assessed as cell growth inhibition incubated for 72 hrs by MTT assay; format: functional, cell-based, Homo sapiens
SW480 = assay: Cytotoxicity against human SW480 cells assessed as cell growth inhibition incubated for 72 hrs by MTT assay; format: functional, cell-based; conditions: Homo sapiens, SW480, 72 h
[2] = Solubility of compound in PBS at pH 7.4 at 2 mg measured for 24 hrs by HPLC-UV analysis; format: physicochemical
MDA-MB-231 [3] = test system: MDA-MB-231
Description: as §1

IC50 (MDA-MB-231 [1])	solubility at 24 h [2]	IC50 (MDA-MB-231 [3])	SMILES	IC50 (HEL; Homo sapiens, HEL, 72 h)	IC50 (SW480)	IC50 (HEL; hel)
> 1000 nM	–	–	COc1cc(OC)c2c(c1)O[C@@]1(c3ccc(OCCn4cnc5ccccc54)cc3)[C@H](c3ccccc3)C[C@@H](O)[C@@]21O (racemic)	> 1000 nM	> 1000 nM	–
> 1000 nM	–	–	CCN(CC)CCOc1ccc([C@@]23Oc4cc(OC)cc(OC)c4[C@]2(O)[C@H](O)C[C@H]3c2ccccc2)cc1 (racemic)	> 1000 nM	> 1000 nM	–
650 nM	–	–	COc1cc(OC)c2c(c1)O[C@@]1(c3ccc(OCCCCn4ccnc4)cc3)[C@H](c3ccccc3)C[C@@H](O)[C@@]21O (racemic)	560 nM	> 1000 nM	–
580 nM	–	–	COc1cc(OC)c2c(c1)O[C@@]1(c3ccc(OCCCCN(C)C)cc3)[C@H](c3ccccc3)C[C@@H](O)[C@@]21O (racemic)	> 1000 nM	> 1000 nM	–
> 1000 nM	–	–	COc1cc(OC)c2c(c1)O[C@@]1(c3ccc(OCCn4ccnc4)cc3)[C@H](c3ccccc3)C[C@@H](O)[C@@]21O (racemic)	> 1000 nM	> 1000 nM	–
370 nM	–	–	COc1cc(OC)c2c(c1)O[C@@]1(c3ccc(OCCCCCN(C)C)cc3)[C@H](c3ccccc3)C[C@@H](O)[C@@]21O (racemic)	170 nM	> 1000 nM	–
> 1000 nM	–	–	COc1cc(OC)c2c(c1)O[C@@]1(c3ccc(OCCN4CCOCC4)cc3)[C@H](c3ccccc3)C[C@@H](O)[C@@]21O (racemic)	> 1000 nM	> 1000 nM	–
320 nM	–	–	COc1cc(OC)c2c(c1)O[C@@]1(c3ccc(OCCCCCn4ccnc4)cc3)[C@H](c3ccccc3)C[C@@H](O)[C@@]21O (racemic)	310 nM	880 nM	–
> 1000 nM	–	–	COc1cc(OC)c2c(c1)O[C@@]1(c3ccc(OCCN4CCCCC4)cc3)[C@H](c3ccccc3)C[C@@H](O)[C@@]21O (racemic)	> 1000 nM	> 1000 nM	–
> 1000 nM	–	–	COc1cc(OC)c2c(c1)O[C@@]1(c3ccc(OCCCCCCCCn4cccc4)cc3)[C@H](c3ccccc3)C[C@@H](O)[C@@]21O (racemic)	> 1000 nM	> 1000 nM	–
> 1000 nM	–	–	COc1cc(OC)c2c(c1)O[C@@]1(c3ccc(OCCN4CCCC4)cc3)[C@H](c3ccccc3)C[C@@H](O)[C@@]21O (racemic)	> 1000 nM	> 1000 nM	–
> 1000 nM	–	–	COc1cc(OC)c2c(c1)O[C@@]1(c3ccc(OCCN(C)C)cc3)[C@H](c3ccccc3)C[C@@H](O)[C@@]21O (racemic)	> 1000 nM	> 1000 nM	–
> 1000 nM	–	–	COc1cc(OC)c2c(c1)O[C@@]1(c3ccc(OCCN4CCN(C)CC4)cc3)[C@H](c3ccccc3)C[C@@H](O)[C@@]21O (racemic)	> 1000 nM	> 1000 nM	–
550 nM	–	–	CCN(CC)CCCCOc1ccc([C@@]23Oc4cc(OC)cc(OC)c4[C@]2(O)[C@H](O)C[C@H]3c2ccccc2)cc1 (racemic)	> 1000 nM	> 1000 nM	–

Further lines, the compound ahead of its results:

SMILES	IC50 (MDA-MB-231 [1])	solubility at 24 h [2]	IC50 (MDA-MB-231 [3])	IC50 (HEL; Homo sapiens, HEL, 72 h)	IC50 (SW480)	IC50 (HEL; hel)
COc1cc(OC)c2c(c1)O[C@@]1(c3ccc(O)cc3)[C@H](c3ccccc3)C[C@@H](O)[C@@]21O (racemic)	350 nM	50 µg/mL (≈ 0.119 mM)	–	180 nM	> 1000 nM	–
COc1cc(OC)c2c(c1)O[C@@]1(c3ccc(OC)c(CN4CCOCC4)c3)[C@H](c3ccccc3)C[C@@H](O)[C@@]21O (racemic)	> 1000 nM	–	–	140 nM	> 1000 nM	–
CCCCN(CCCC)Cc1cc([C@@]23Oc4cc(OC)cc(OC)c4[C@]2(O)[C@H](O)C[C@H]3c2ccccc2)ccc1OC (racemic)	> 1000 nM	–	–	> 1000 nM	> 1000 nM	–
CCN(CC)CCCCCOc1ccc([C@@]23Oc4cc(OC)cc(OC)c4[C@]2(O)[C@H](O)C[C@H]3c2ccccc2)cc1 (racemic)	130 nM	–	–	260 nM	690 nM	–
CCN(CC)CCCCCCCCOc1ccc([C@@]23Oc4cc(OC)cc(OC)c4[C@]2(O)[C@H](O)C[C@H]3c2ccccc2)cc1 (racemic)	470 nM	–	–	390 nM	650 nM	–
COc1cc(OC)c2c(c1)O[C@@]1(c3ccc(O)c(CN4CCCCC4)c3)[C@H](c3ccccc3)C[C@@H](O)[C@@]21O (racemic)	> 1000 nM	–	–	> 1000 nM	> 1000 nM	–
CCN(CC)Cc1cc([C@@]23Oc4cc(OC)cc(OC)c4[C@]2(O)[C@H](O)C[C@H]3c2ccccc2)ccc1O (racemic)	> 1000 nM	–	–	> 1000 nM	> 1000 nM	–
COc1cc(OC)c2c(c1)O[C@@]1(c3ccc(OCCCCCCCCN4CCN(C)CC4)cc3)[C@H](c3ccccc3)C[C@@H](O)[C@@]21O (racemic)	450 nM	–	–	460 nM	690 nM	–
COc1cc(OC)c2c(c1)O[C@@]1(c3ccc(OC)c(CN4CCCC4)c3)[C@H](c3ccccc3)C[C@@H](O)[C@@]21O (racemic)	> 1000 nM	–	–	670 nM	> 1000 nM	–
COc1cc(OC)c2c(c1)O[C@@]1(c3ccc(OCCCCN4CCCCC4)cc3)[C@H](c3ccccc3)C[C@@H](O)[C@@]21O (racemic)	660 nM	–	–	460 nM	> 1000 nM	–
COc1cc(OC)c2c(c1)O[C@@]1(c3ccc(OC)c(CN(C)C)c3)[C@H](c3ccccc3)C[C@@H](O)[C@@]21O (racemic)	> 1000 nM	–	–	190 nM	> 1000 nM	–
COc1cc(OC)c2c(c1)O[C@@]1(c3ccc(O)c(CN(C)C)c3)[C@H](c3ccccc3)C[C@@H](O)[C@@]21O (racemic)	> 1000 nM	–	–	> 1000 nM	> 1000 nM	–
COc1cc(OC)c2c(c1)O[C@@]1(c3ccc(O)c(CN4CCCC4)c3)[C@H](c3ccccc3)C[C@@H](O)[C@@]21O (racemic)	> 1000 nM	–	–	> 1000 nM	> 1000 nM	–
CCCCN(CCCC)Cc1cc([C@@]23Oc4cc(OC)cc(OC)c4[C@]2(O)[C@H](O)C[C@H]3c2ccccc2)ccc1O (racemic)	> 1000 nM	–	–	> 1000 nM	> 1000 nM	–
COc1cc(OC)c2c(c1)O[C@@]1(c3ccc(OCCCCCCCCN4CCCCC4)cc3)[C@H](c3ccccc3)C[C@@H](O)[C@@]21O (racemic)	> 1000 nM	–	–	240 nM	> 1000 nM	–
COc1cc(OC)c2c(c1)O[C@@]1(c3ccc(OCCCCCN4CCCCC4)cc3)[C@H](c3ccccc3)C[C@@H](O)[C@@]21O (racemic)	190 nM	–	–	180 nM	> 1000 nM	–
COc1cc(OC)c2c(c1)O[C@@]1(c3ccc(OCCCCN4CCN(C)CC4)cc3)[C@H](c3ccccc3)C[C@@H](O)[C@@]21O (racemic)	220 nM	–	–	380 nM	650 nM	–
CCN(CC)Cc1cc([C@@]23Oc4cc(OC)cc(OC)c4[C@]2(O)[C@H](O)C[C@H]3c2ccccc2)ccc1OC (racemic)	> 1000 nM	–	–	120 nM	430 nM	–
COc1cc(OC)c2c(c1)O[C@@]1(c3ccc(OC)c(CN4CCCCC4)c3)[C@H](c3ccccc3)C[C@@H](O)[C@@]21O (racemic)	> 1000 nM	–	–	570 nM	> 1000 nM	–
COc1cc(OC)c2c(c1)O[C@@]1(c3ccc(OCCCCCCCCN(C)C)cc3)[C@H](c3ccccc3)C[C@@H](O)[C@@]21O (racemic)	210 nM	–	–	220 nM	> 1000 nM	–
COc1cc(OC)c2c(c1)O[C@@]1(c3ccc(O)c(CN4CCOCC4)c3)[C@H](c3ccccc3)C[C@@H](O)[C@@]21O (racemic)	> 1000 nM	–	–	490 nM	> 1000 nM	–
COc1cc(OC)c2c(c1)O[C@@]1(c3ccc(OCCCCCN4CCN(C)CC4)cc3)[C@H](c3ccccc3)C[C@@H](O)[C@@]21O (racemic; form 1)	–	8900 µg/mL (≈ 15.1 mM)	110 nM	–	550 nM	230 nM
COc1cc(OC)c2c(c1)O[C@@]1(c3ccc(OCCCCCN4CCN(C)CC4)cc3)[C@H](c3ccccc3)C[C@@H](O)[C@@]21O (stereo in doubt; (+)-18o)	–	–	–	–	–	> 1000 nM
COc1cc(OC)c2c(c1)O[C@@]1(c3ccc(OCCCCCN4CCN(C)CC4)cc3)[C@H](c3ccccc3)C[C@@H](O)[C@@]21O (stereo in doubt; (-)-18o)	–	–	–	–	–	120 nM
COc1cccc2c1C(=O)c1c(O)c3c(c(O)c1C2=O)C[C@@](O)(C(=O)CO)C[C@@H]3O[C@H]1C[C@H](N)[C@H](O)[C@H](C)O1 [DOXORUBICIN HYDROCHLORIDE]	500 nM	–	–	240 nM	120 nM	–
